Several values for one entry are separate records, joined by “and”; a condition that tells them apart may be missing. Equal values may be shown once.
Tests used:
[1] = test system: MPTP+MK-801-induced Parkinson's disease mouse model; assay: MPTP+MK-801-induced Parkinson's disease mouse model (anti-PDP efficacy model); format: in vivo; conditions: ip, mice, intraperitoneal, read-out: PDP efficacy (high activity) ED50
Protocol: 1.1 Effect on MPTP+MK-801-induced Parkinson's disease mouse model (anti-PDP efficacy model)
Animals were injected with different doses of MPTP(1-methyl-4-phenyl-1,2,3,6-tetrahydropyridine) intraperitoneally every morning for 5 consecutive days. […] Then, after an interval of 0.25 h, the mice were placed into an autonomous activity test box (a black polyethylene box with the specification of 29 cm×29 cm×30 cm) for video recording for 20 min. Video analysis was performed after the video recording to evaluate the activity of the mice.

[2] = Investigation of sedation side effects (autonomic activity, movement distance); format: in vivo, mice; conditions: mouse, in vivo, ip; C57BL/6j mice, intraperitoneal, 45 min after administration
Protocol: (§1) 1.3 Investigation of Sedation Side Effects (Anti-Sedation Model)
(§2) According to different doses of each group, solutions at different concentrations were separately formulated for intraperitoneal injection, with the final administration volume of 10 mL/kg.
(§3) The movement at 0-20 min was recorded on video, and the movement distance in 20 min was analyzed by Top Scan 3.00 software. The inhibition rate of each group relative to the blank group after the administration were calculated, and the sedation effects of the compounds were comprehensively evaluated in combination with a statistical conclusion.

C57BL/6j mice = assay: as above; format: in vivo; conditions: sedation ED50 / PDP efficacy ED50
Protocol: as §1, §2, §3

PPI in normal rats = PPI in normal rats (dosing test, normal saline instead of DOI); format: in vivo; conditions: for PPI %, MEAN / PPI %, individual animal: normal saline
Protocol: The test was performed according to literature and preliminary experiments, and the specific process was as follows: first an adaptation period of 5 min was given (62 dB background sound), and 5 separate startle reflex stimuli were given after the adaptation period (blockl, results not included in the analysis to reduce the initial response of the animals to a plateau level), followed by 4 different types of tests (block2) presented in a pseudo-random manner, namely: 1) startle reflex stimulus alone (pulse-alone, 120 dB, lasting 20 ms); 2) prepulse stimulus alone 13 dB above the background sound (prepulse-alone, 75 dB, lasting 20 ms); 3) prepulse stimulus in combination with startle reflex stimulus, each lasting 20 ms, with an interval of 100 ms; and 4) no stimulus in which only the background sound was given (no stimulus). Each trial was performed 5 times, with an average interval of 20 s (10-30 s) between trials.
The response amplitude of the startle reflex stimulus alone or the prepulse stimulus in combination with startle reflex stimulus was expressed as the AVG (instrument-specific unit) value, which indirectly reflects the size of the flinching response of the rat body. Evaluation index: PPI %=(1−response amplitude of prepulse stimulus in combination with startle reflex stimulus/response amplitude of startle reflex stimulus alone)×100. The higher the value is, the greater the degree of the inhibition is. Dosing Test:
The DOI at 0.5 mg/kg administered to animals in the above groups was changed to normal saline (NS), and other operations including administration and testing were the same as those in the intervention test.

CC(C)COc1ccc(CN2Cc3ccc(F)cc3CN(C3CCN(C)CC3)C2=O)cc1 [NH-K-A19005, 8-fluoro-2-(1-methylpiperidin-4-yl)-4-[[4-(2-methylpropoxy)phenyl]methyl]-1,5-dihydro-2,4-benzo diazepine-3-one]
ED50 [1]: 1.85 mg/kg
ED50 at 45 min [2]: 20 mg/kg
Ratio of sedation ED50 to PDP efficacy ED50 (C57BL/6j mice): 10.8
effect on PPI in normal rats (PPI in normal rats; 3 mg/kg): no significant effects were seen
PPI %, MEAN (PPI in normal rats; 1 mg/kg intragastric): 56.40%
PPI %, individual animal (PPI in normal rats; 1 mg/kg intragastric): 80.68% and 15.47% and 49.79% and 52.82% and 71.15% and 68.46%
PPI %, MEAN (PPI in normal rats; 3 mg/kg intragastric): 57.04%
PPI %, individual animal (PPI in normal rats; 3 mg/kg intragastric): 59.36% and 82.61% and 79.48% and 48.75% and 42.42% and 38.56% and 48.95% and 56.22%
PPI %, MEAN (PPI in normal rats; 10 mg/kg intragastric): 73.61%
PPI %, individual animal (PPI in normal rats; 10 mg/kg intragastric): 55.11% and 96.41% and 53.03% and 84.89% and 84.43% and 72.39% and 61.37% and 81.26%

Source: patent US12559471B2, “1,5-dihydro-2,4-benzodiazepine-3-one derivative and application thereof” (JIANGSU NHWA PHARMACEUTICAL CO., LTD, priority 2020, dated 2026)
